ChEMBL document CHEMBL1795324, “New class of acetylcholinesterase inhibitors from the stem bark of Knema laurina and their structural insights” (Bioorg Med Chem Lett, 2011)

biological target: Acetylcholinesterase (Electrophorus electricus, UniProt O42275)
Sequence (O42275 whole entry): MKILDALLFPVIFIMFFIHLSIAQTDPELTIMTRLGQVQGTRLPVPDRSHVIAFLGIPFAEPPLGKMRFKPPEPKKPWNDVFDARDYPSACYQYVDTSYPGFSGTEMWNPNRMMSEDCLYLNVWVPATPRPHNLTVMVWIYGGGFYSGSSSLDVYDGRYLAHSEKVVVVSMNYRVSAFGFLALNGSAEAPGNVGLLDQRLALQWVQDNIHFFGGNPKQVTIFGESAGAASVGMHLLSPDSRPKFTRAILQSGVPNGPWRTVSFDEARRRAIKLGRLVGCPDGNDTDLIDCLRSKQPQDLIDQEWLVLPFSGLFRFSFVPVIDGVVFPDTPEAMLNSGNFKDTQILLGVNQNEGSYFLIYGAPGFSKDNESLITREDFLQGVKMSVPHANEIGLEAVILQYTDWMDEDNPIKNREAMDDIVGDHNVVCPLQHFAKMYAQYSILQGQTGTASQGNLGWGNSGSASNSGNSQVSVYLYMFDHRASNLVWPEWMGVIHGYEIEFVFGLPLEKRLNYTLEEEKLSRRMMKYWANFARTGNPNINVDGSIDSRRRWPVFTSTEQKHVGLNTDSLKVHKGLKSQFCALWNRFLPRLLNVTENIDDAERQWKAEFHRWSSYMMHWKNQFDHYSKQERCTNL
Description: Inhibition of electric eel acetylcholinesterase using acetylthiocholine iodide as substrate after 10 mins by Ellman's spectrophotometric method

Row | SMILES | IC50 [µM]
1 | CCCCC[C@H](O)/C=C/CCCCCCCc1cccc(O)c1C(=O)O | 3.18
2 | CCCCC[C@H](O)/C=C/CCCCCCCc1cccc(OC)c1C(=O)OC | 342
3 | CCCC/C=C\CCCCCCCCCc1cccc(O)c1 | 17.2
4 | CCCC/C=C\CCCCCCCCCc1cccc(OC)c1 | 178
5 | CCCC/C=C\CCCCCCCCCc1cccc(OC)c1C(=O)OC | 358
6 | CCCCCC/C=C\CCCCCCCCCc1cccc(OC)c1C(=O)OC | 303
7 | CCCCCC/C=C\CCCCCCCCCc1cccc(O)c1 | 13.1
